Laboratory results: paper PMC4795001 (Chemical communications (Cambridge, England), 2015)
Like-named read-outs stand apart in the source and are kept apart here. Blank lines part the entries; values can stand above or below the compound they belong to.

How the values were obtained:
holo-GrsA (recombinant) = molecular target: T1, holo-GrsA (recombinant) (Aneurinibacillus migulanus, UniProt P0C061); assay: coupled hydroxamate-MesG continuous spectrophotometric assay; format: biochemical; settings: read-out: Ki^app; tight-binding; A domain active site
T1 sequence (P0C061 1-1098): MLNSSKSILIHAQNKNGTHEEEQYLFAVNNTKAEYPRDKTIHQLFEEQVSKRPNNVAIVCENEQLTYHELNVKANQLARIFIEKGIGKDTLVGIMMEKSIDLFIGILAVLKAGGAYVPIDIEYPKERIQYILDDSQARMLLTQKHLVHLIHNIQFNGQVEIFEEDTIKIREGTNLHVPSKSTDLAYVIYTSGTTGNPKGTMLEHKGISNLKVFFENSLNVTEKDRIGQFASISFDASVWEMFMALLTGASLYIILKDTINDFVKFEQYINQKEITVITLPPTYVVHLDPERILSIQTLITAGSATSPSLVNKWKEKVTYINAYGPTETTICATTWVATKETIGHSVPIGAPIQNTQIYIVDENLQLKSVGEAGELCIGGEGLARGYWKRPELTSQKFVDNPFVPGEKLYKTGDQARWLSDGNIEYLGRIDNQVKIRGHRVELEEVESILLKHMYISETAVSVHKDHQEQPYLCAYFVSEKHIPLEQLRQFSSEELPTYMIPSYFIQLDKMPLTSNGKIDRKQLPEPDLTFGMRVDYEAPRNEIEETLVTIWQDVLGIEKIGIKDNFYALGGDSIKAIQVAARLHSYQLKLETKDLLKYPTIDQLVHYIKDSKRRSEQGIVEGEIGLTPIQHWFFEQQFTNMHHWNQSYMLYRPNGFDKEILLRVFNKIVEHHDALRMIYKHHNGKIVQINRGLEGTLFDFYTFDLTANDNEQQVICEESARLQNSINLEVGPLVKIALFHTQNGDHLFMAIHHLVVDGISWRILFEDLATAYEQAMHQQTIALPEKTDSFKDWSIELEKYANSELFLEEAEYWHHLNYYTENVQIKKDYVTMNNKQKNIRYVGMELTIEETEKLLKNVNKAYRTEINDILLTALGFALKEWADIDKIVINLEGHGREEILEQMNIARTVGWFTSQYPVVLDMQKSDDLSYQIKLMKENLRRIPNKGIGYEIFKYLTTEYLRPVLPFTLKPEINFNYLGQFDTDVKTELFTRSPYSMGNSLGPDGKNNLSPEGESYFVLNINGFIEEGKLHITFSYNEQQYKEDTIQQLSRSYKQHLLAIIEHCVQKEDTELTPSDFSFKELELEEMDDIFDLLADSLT

holo-TycB1 (recombinant) = molecular target: T2, holo-TycB1 (recombinant) (Brevibacillus parabrevis, UniProt O30408); assay: as above; format: biochemical
T2 sequence (O30408 1-1080 limits assumed): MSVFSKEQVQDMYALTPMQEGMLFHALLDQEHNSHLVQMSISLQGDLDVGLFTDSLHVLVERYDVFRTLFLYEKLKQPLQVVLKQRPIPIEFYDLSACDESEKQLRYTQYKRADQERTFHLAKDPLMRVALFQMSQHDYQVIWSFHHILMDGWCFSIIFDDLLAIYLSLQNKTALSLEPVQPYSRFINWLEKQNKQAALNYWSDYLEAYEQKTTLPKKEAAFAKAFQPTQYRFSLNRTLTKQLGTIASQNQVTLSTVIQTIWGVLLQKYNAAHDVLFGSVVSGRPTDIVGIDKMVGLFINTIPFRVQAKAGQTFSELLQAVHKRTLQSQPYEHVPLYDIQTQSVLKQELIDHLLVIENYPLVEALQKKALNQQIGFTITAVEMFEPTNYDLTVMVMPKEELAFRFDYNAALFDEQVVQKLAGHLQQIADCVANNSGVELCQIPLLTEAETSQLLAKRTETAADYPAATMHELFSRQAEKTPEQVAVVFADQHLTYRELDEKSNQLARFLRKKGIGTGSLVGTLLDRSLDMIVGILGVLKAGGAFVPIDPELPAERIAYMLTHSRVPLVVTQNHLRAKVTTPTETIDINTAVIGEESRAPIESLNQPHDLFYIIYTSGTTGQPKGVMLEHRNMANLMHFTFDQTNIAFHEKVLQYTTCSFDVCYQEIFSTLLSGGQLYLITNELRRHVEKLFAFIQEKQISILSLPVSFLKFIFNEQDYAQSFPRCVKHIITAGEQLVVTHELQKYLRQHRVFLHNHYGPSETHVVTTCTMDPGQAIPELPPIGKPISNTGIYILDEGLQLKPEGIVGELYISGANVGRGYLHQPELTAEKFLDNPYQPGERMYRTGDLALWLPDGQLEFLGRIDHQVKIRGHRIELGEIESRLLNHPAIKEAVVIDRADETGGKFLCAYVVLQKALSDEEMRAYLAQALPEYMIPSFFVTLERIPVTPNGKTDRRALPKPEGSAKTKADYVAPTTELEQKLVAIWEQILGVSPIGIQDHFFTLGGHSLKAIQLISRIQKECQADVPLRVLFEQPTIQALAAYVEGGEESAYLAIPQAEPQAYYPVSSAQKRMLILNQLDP

Ki (holo-GrsA (recombinant)): 1.43 ± 0.19 nM
Compound: L-Phe-AMS-BPyne [compound 1]

Ki (holo-TycB1 (recombinant)): 431 ± 42 nM
Compound: Nc1ncnc2c1ncn2[C@@H]1O[C@H](COS(=O)(=O)NC(=O)[C@@H]2CCCN2)[C@@H](O)[C@H]1O [compound 5, L-Pro-AMS]

Ki (holo-TycB1 (recombinant); read-out: Ki^app, tight-binding, A domain active site): 327 ± 17 nM
Compound: L-Pro-AMS-BPyne [compound 2]
